Results from patent US20040127739A1, “Novel n-p-propargyloxyphenethyl-thioacetic acid amides” (priority 2001, published 2004).

Experiments:
Assay type in all cases: in vivo
[1] = system: Phytophthora; assay: Action against Phytophthora on tomato plants (residual-protective / systemic); conditions: untreated plants showed pathogen attack of 80% to 100%, read-out: inhibition of fungal infestations
Method: Action Against Phytophthora on Tomato Plants
(§1) a) Residual-protective Action
(§2) After a cultivation period of 3 weeks, tomato plants are sprayed with a spray mixture (0.02% active ingredient) prepared from a wettable powder formulation of the test compound. After 48 hours, the treated plants are infected with a sporangia suspension of the fungus. Fungus infestation is evaluated after incubation of the infected plants for 5 days at 90-100% relative humidity and +20° C.
as §2, with “watered” for “sprayed”, “ingredient based on the volume of the soil)” for “ingredient)”, “compound. […]” for “compound.”, “96” for “48”, “4” for “5”

[2] = system: Plasmopara viticola; assay: Action against Plasmopara viticola on vines (residual-protective / residual-curative); conditions: vine seedlings, untreated plants showed pathogen attack of 80% to 100%, read-out: inhibition of fungal infestations
Method: Action Against Plasmopara viticola on Vines a) Residual-protective Action
Vine seedlings are sprayed at the 4- to 5-leaf stage with a spray mixture (0.02% active ingredient) prepared from a wettable powder formulation of the test compound. After 24 hours, the treated plants are infected with a sporangia suspension of the fungus. Fungus infestation is evaluated after incubation for 6 days at 95-100% relative humidity and +20° C. […]
b) Residual-curative Action
Vine seedlings are infected at the 4- to 5-leaf stage with a sporangia suspension of the fungus. After incubation for 24 hours in a humidity chamber at 95-100% relative humidity and +20° C., the infected plants are dried and sprayed with a spray mixture (0.02% active ingredient) prepared from a wettable powder formulation of the test compound. After the spray coating has dried, the treated plants are placed in the humidity chamber again. Fungus infestation is evaluated 6 days after infection.

[3] = system: Phytophthora; assay: Action against Phytophthora on potato plants (residual-protective / systemic); conditions: potato plants (Bintje variety), untreated plants showed pathogen attack of 80% to 100%, read-out: inhibition of fungal infestations
Method: Action Against Phytophthora on Potato Plants
as §1
(§3) 2-3 week old potato plants (Bintje variety) are sprayed with a spray mixture (0.02% active ingredient) prepared from a wettable powder formulation of the test compound. After 48 hours, the treated plants are infected with a sporangia suspension of the fungus. Fungus infestation is evaluated after incubation of the infected plants for 4 days at 90-100% relative humidity and +20° C.
as §3, with “watered” for “sprayed”, “ingredient based on the volume of the soil)” for “ingredient)”, “compound. […]” for “compound.”

Row | Structure (SMILES) | inhibition at 200 ppm [1] | inhibition at 200 ppm [2] | inhibition at 200 ppm [3]
1 | C#CCOc1ccc(CCNC(=S)C(OCC#C)c2ccc(Cl)cc2)cc1OC (stereo not shown) [Compound A1.01, 2-(4-Chloro-phenyl)-N-[2-(3-methoxy-4-prop-2-ynyloxy-phenyl)-ethyl]-2-(prop-2-ynyloxy)-thioacetamide] | 80 to 100% | 80 to 100% | 80 to 100%
2 | C#CCOc1ccc(CCNC(=S)C(O)c2ccc(Cl)cc2)cc1OC (stereo not shown) [Compound A2.01, 2-(4-Chloro-phenyl)-2-hydroxy-N-[2-(3-methoxy-4-prop-2-ynyloxy-phenyl)-ethyl]-thioacetamide] | 80 to 100% | 80 to 100% | 80 to 100%
3 | C#CCOc1ccc(CCNC(=S)C(OC(C)=O)c2ccc(Cl)cc2)cc1OC (stereo not shown) [Compound A1.03, 2-acetoxy-2-(4-chloro-phenyl)-N-[2-(3-methoxy-4-prop-2-ynyloxy-phenyl)-ethyl]-thioacetamide] | 80 to 100% | 80 to 100% | 80 to 100%
4 | C#CCOc1ccc(CCNC(=S)C(OCC#C)c2ccc(Br)cc2)cc1OC (stereo not shown) [Compound A1.02, 2-(4-bromo-phenyl)-N-[2-(3-methoxy-4-prop-2-ynyloxy-phenyl)-ethyl]-2-(prop-2-ynyloxy)-thioacetamide] | 80 to 100% | 80 to 100% | 80 to 100%
5 | C#CCOc1ccc(CCNC(=S)C(O)c2ccc(Br)cc2)cc1OC (stereo not shown) [Compound A2.02, 2-(4-bromo-phenyl)-2-hydroxy-N-[2-(3-methoxy-4-prop-2-ynyloxy-phenyl)-ethyl]-thioacetamide] | 80 to 100% | 80 to 100% | 80 to 100%
6 | C#CCOc1ccc(CCNC(=S)C(OC(C)=O)c2ccc(Br)cc2)cc1OC (stereo not shown) [Compound A1.04, 2-acetoxy-2-(4-bromo-phenyl)-N-[2-(3-methoxy-4-prop-2-ynyloxy-phenyl)-ethyl]-thioacetamide] | – | – | 80 to 100%
